From patent publication US5565200A, “Pharmaceutical preparations derived from korean mistletoe” (priority 1995, dated 1996) come the findings set out here.

Data set [1] is described as follows: Weight change of tumor-bearing mice to assess toxic effects. As to conditions: 98 mg/kg, i.p., qd (1,7,14,21). Format: in vivo. An excerpt:
(§1) Anticancer activities of n-T4GEN were studied in animals bearing subcutaneous transplants of C3H Mammary adenocarcinoma 16/C. This tumor is maintained as a lung passed tumor in C3H female mice. In this example, tumors (1×10^6 cells) were transplanted (S.C.) in 18-20 g B6C3F^1 hybrid female mice. On the following day, the tumor bearing animals were randomized and separated into different treatment groups (10 mice per group). There were 15 animals in the control group who received only physiological saline during the treatment periods. The treatments (i.p.) were started 48 hours after the transplants and given for a duration of 14 days (daily single injections). Animals were weighed on days 5, 9 and 14 to assess toxic effects. Tumors were measured on days 21, 28 post transplants and the results are represented as tumor weights using formula [formula]

Data set [2] deals with C3H Mammary adenocarcinoma 16/C. Description: Growth of subcutaneous transplants of C3H mammary adenocarcinoma 16/C in B6C3F1 female mice. It is filed as in vivo. The settings on record: 98 mg/kg, i.p., qd (1,7,14,21).
From the text: as §1, with “The treatments (i.p.) were started 48 hours after the transplants and given for a duration of 14 days (daily single injections).” left out

Molecules are shown by their SMILES.

In the case of `O=c1[nH]cc(F)c(=O)[nH]1` [5Fluorouracil], the “Δ Wts (g) (day 14)” value in data set [1] was “+1.77 g”. In data set [2], the “Tumor Free Animals (day 93)” value was 0/6, the “Tumor Inhibition %” value is 100% and the “Tumor Wts (day 21)” value is 0.00.
